We go through one compound from patent publication US11938106B2, “Treatment of tinnitus using glutamate receptor agonists” (Northeast Ohio Medical University, priority 2016, dated 2024).

Molecules are shown by their SMILES.

The nature of experiment [1]: Gap detection performance for behavioral assessment of tinnitus in the tinnitus mouse model. Conditions: one mouse, FIG. 17. In kind it is in vivo. As for the experimental part: Mice were assessed for tinnitus 3 months after exposure. The ability of mice to detect a gap of silence preceding the startle stimulus was determined using commercial hardware/software equipment from Kinder Scientific, Inc. Mice were placed in a small restrainer situated on a plate with a pressure sensor. Any animal motion was detected by the sensor which measured its amplitude and stored data on the computer hard drive. Kinder Scientific software was used to generate a sequence of stimulus trials including a startle stimulus presented alone (STARTLE) and a startle stimulus paired with a gap (GAP+STARTLE) embedded into continuous background noise. The background consisted of narrow-band (1/3 octave) noise centered at six different frequencies (10, 12.5, 16, 20, 25, and 31.5 kHz). […]
Therefore, the data in each session were statistically analyzed to remove outliers (Grubbs' test for outliers). […] To calculate the GAP+STARTLE/STARTLE ratio we calculated the mean for all STARTLE values. […]
The presence of tinnitus in each mouse is assessed by pre-pulse inhibition of the acoustic startle reflex using the procedure developed by Turner et al. Turner et al., Behav Neurosci 120:188-195 (2006). […] The inventor measured the ratio of the startle response amplitude when preceded by a gap of silence over the startle response amplitude without preceded gap. […]

Experiment [2] can be described thus: Acoustic startle reflex (startle input/output function). The experiment is classed as in vivo, mouse. To be noted: in 6 out of 7 mice tested, FIG. 14A, 30 min after drug administration. As for the experimental part: (§1) Adult CBA/CaJ mice were used for the study. […] Injection was performed remotely via an intravenous catheter inserted into the tail vein. Spontaneous firing rates of IC neurons were measured and compared before, during, and after of drug injection. To test whether this drug is affecting general sound processing in the auditory system of mice, the acoustic startle reflex and gap detection performance were also assessed.
(§2) The animals used were CBA/CaJ male mice, 8 months to 1.5 years old. Extracellular recording was carried out using Quartz micropipettes filled with 1M potassium acetate solution, 10-20 M ohms. Local field potential (LFP) was evaluated using a chronically implanted 4 channel multi-electrode array chronically implanted into IC in a freely moving animal via wireless recording system. For drug administration, the Group II mGluR agonist was administered via intravenous (3.5 mg/kg) or intraperitoneal (5 mg/kg) injections while recording neural activity. To evaluate startle input/output function, startle intensities were randomized within the range from 70 dB to 120 dB SPL. Startle was a broad band noise 20 ms duration. Inter-trial intervals were pseudo randomized between 15 and 25 sec. For gap detection, two trials were carried out. […]

A short description of experiment [3]: Gap detection performance (gap-induced suppression of acoustic startle) in mice. In kind it is in vivo, mouse. To be noted: 7 mice, FIG. 14B, 30 min after drug administration. The procedure: as §1, §2
The test system of experiment [4] is inferior colliculus (auditory midbrain). In words: Local field potentials (sound evoked activity) recorded in the IC of awake mice. The experiment is classed as in vivo, mouse. Conditions: systemic administration, FIG. 13. As for the experimental part:
FIG. 13 provides graphs showing that a group II mGluR agonist enhances of sound evoked activity in the IC. Local field potentials (LFPs) recorded in the IC of awake mice in response to 30 ms wideband noise (1-100 kHz, 80 dB SPL) recorded before, 30 min and 90 min after drug administration. LFPs shown here were generated based on 130 repetitions. SEMs are shown by grey
as §2, with “out. Trial I—The acoustic startle (110 dB SPL, 20 ms duration, wideband noise) imbedded in continuous background noise (65 dB SPL, third octave, centered at 10, 12.5, 16, 20, 25, and 31.5 kHz).” for “out.”

The next experiment deals with IC neurons. In words: Extracellular recording of neuronal firing in the inferior colliculus of awake mice before, during and after systemic drug injection. In kind it is in vivo, mouse. As for the experimental part: as §1
The animals used were CBA/CaJ male mice, 8 months to 1.5 years old. Extracellular recording was carried out using Quartz micropipettes filled with 1M potassium acetate solution, 10-20 M ohms. Local field potential (LFP) was evaluated using a chronically implanted 4 channel multi-electrode array chronically implanted into IC in a freely moving animal via wireless recording system. For drug administration, the Group II mGluR agonist was administered via intravenous (3.5 mg/kg) or intraperitoneal (5 mg/kg) injections while recording neural activity. To evaluate startle input/output function, startle intensities were randomized within the range from 70 dB to 120 dB SPL. Startle was a broad band noise 20 ms duration. Inter-trial intervals were pseudo randomized between 15 and 25 sec. For gap detection, two trials were carried out. Trial I—The acoustic startle (110 dB SPL, 20 ms duration, wideband noise) imbedded in continuous background noise (65 dB SPL, third octave, centered at 10, 12.5, 16, 20, 25, and 31.5 kHz). Trial II—Trial I paired with a 20 ms gap embedded into background noise and presented 100 ms before the startle. Inter-trial intervals were pseudo randomized between 10 and 17 sec.

As for `N[C@@]1(C(=O)O)CC[C@H]2[C@H](C(=O)O)[C@H]21` [LY354740, (1S,2S,5R,6S)-2-Aminobicyclo[3.1.0]hexane-2,6-dicarboxylic acid], the “gap detection performance after systemic injection” value in experiment [1] was “improvement of gap detection in this mouse to the control level”. In experiment [2], the “increase of magnitude of startle responses” value was “at least 20%”. The “effect on gap detection performance” value in experiment [3] is “not affected”. Moreover, the “effect on sound evoked activity” value in experiment [4] is given as “did not change or slightly increased”. Also, in the experiment on IC neurons (injected IV), the “duration of suppression of spontaneous activity” value is listed as “several tens of minutes” and the “time after injection to suppression of spontaneous activity” value is given as “Several seconds”. Moreover, the “effect on spontaneous activity in IC neurons” value with IC neurons (injected IV, vast majority of IC neurons, awake mice) is recorded as “near complete suppression”. In addition, in the experiment on IC neurons (single IC neuron, FIG. 12), the “time after systemic drug administration at which background firing was suppressed” value is recorded as “About 5 min” and the “time until rate of background activity almost recovered to pre-drug level” value is reported as “about 2 hours”. Moreover, the “effect on sound-evoked firing” value with IC neurons (single IC neuron, FIG. 12, systemic administration) is listed as “unaffected”. The “effect on spontaneous activity in auditory neurons” value in the experiment on IC neurons (systemic activation of group II mGluRs, FIG. 10, 15) is on record as “dramatically suppressed”.
